Source: ChEMBL document CHEMBL2074129 (J Clin Invest, 1995)

Key:
[1] = biological target: ATP-dependent translocase ABCB1 (Homo sapiens, UniProt P08183); experiment: TP_TRANSPORTER: transepithelial transport (basal to apical) in MDR1-expressing LLC-PK1 cells; assay type: functional, cell-based; settings: pig
[2] = biological target: ATP-dependent translocase ABCB1 (Mus musculus, UniProt P21447); experiment: TP_TRANSPORTER: transepithelial transport (basal to apical) in mdr1a-expressing LLC-PK1 cell; assay type: functional, cell-based; settings: pig
ATP-dependent translocase ABCB1 (Mus musculus, UniProt P21447), sequence (P21447 whole entry): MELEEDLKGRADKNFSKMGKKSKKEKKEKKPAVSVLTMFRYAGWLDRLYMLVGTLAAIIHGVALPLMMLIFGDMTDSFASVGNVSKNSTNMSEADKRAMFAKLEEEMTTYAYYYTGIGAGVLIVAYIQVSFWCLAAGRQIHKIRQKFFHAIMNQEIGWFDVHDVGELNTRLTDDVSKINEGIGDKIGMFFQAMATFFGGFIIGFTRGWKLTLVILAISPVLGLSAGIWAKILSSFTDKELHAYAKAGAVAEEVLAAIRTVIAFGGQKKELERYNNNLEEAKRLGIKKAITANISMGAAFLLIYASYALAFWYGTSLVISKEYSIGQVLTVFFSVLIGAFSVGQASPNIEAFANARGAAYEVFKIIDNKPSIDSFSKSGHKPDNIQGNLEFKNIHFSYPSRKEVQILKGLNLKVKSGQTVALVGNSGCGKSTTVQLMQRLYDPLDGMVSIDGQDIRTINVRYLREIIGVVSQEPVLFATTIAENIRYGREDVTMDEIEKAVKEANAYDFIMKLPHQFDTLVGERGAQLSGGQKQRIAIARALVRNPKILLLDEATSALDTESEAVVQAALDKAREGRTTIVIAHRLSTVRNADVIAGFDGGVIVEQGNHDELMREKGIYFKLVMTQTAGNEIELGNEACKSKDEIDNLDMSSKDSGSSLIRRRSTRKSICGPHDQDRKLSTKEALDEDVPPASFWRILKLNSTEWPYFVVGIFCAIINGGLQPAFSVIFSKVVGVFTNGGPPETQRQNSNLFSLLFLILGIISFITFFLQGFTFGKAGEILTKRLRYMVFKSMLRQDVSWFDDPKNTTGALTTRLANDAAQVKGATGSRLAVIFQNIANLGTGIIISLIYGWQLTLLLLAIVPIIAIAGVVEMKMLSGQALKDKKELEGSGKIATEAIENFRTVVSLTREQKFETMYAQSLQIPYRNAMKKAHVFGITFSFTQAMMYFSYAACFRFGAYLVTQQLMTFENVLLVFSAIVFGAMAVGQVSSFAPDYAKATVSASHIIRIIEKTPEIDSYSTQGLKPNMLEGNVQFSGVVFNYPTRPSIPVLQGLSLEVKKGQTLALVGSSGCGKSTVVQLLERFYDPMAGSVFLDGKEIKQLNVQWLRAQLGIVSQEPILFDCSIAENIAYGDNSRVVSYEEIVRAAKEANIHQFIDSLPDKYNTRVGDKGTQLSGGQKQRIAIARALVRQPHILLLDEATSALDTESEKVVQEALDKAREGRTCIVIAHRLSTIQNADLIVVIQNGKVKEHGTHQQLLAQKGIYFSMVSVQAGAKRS

ATP-dependent translocase ABCB1 (Homo sapiens, UniProt P08183), sequence (P08183 whole entry): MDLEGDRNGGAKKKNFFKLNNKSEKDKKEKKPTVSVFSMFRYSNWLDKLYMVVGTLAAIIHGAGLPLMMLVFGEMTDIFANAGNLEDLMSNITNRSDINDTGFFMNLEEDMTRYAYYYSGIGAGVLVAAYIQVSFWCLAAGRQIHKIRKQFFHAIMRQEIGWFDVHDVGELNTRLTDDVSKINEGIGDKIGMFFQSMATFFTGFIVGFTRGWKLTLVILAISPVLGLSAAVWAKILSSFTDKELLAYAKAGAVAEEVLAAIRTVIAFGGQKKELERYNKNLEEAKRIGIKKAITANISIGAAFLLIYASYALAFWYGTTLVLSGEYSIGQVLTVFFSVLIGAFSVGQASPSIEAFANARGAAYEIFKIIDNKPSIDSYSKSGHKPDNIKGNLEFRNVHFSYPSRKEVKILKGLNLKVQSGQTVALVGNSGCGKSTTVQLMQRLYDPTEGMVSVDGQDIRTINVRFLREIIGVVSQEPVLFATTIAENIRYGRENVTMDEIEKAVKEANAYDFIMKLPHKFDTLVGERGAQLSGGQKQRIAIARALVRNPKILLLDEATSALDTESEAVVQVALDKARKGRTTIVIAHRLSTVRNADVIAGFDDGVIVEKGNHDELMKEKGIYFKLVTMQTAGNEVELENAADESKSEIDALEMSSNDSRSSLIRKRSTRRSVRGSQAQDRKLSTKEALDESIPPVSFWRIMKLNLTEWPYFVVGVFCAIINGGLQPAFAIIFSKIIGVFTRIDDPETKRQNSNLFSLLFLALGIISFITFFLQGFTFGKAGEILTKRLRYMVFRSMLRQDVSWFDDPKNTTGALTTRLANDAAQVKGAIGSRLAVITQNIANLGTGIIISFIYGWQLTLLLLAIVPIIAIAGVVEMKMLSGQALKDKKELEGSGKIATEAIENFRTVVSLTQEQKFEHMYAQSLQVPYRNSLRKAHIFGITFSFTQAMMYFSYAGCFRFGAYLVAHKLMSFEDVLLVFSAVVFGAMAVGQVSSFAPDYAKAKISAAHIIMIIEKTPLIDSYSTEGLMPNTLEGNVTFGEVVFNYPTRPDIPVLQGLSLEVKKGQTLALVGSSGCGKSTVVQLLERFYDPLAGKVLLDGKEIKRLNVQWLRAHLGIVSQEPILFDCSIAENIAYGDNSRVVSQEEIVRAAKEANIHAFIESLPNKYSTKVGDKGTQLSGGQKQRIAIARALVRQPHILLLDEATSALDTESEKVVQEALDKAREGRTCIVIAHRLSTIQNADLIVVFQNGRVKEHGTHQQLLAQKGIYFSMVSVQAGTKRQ

Molecule: C[C@@H]1C[C@H]2[C@@H]3CCC4=CC(=O)C=C[C@]4(C)[C@@]3(F)[C@@H](O)C[C@]2(C)[C@@]1(O)C(=O)CO [DEXAMETHASONE]
- Activity [1]: substrate [+]
- Activity [2]: substrate [+]

Molecule: CN1CC[C@]23c4c5ccc(O)c4O[C@H]2[C@@H](O)C=C[C@H]3[C@H]1C5 [MORPHINE]
- Activity [2]: substrate [+]

Molecule: IVERMECTIN
- Activity [1]: substrate [+]
- Activity [2]: substrate [+]
